Laboratory results reported in article PMC8330795, “In silico identification and experimental validation of cellular uptake by a new cell penetrating peptide P1 derived from MARCKS” (Drug Delivery, 2021).

Tests used:
HSC-T6 cells [1] = assay: Cellular uptake of FITC-labeled peptide, fluorescence microscopy and lysate fluorescence; assay type: cell-based, rat
Procedure: Cells were suspended in regular culture media and seeded on coverslip in a 24-well plate at a concentration of 1.6 × 10^4 cells/well. Rinsing with PBS twice after 24 h of incubation for cell attachment, FITC-labeled peptides at indicated concentrations were added with 0.5 ml serum-free media/well and incubated for 1 hour at 37 °C. After incubation, the cells were washed with PBS at least three times. 4′,6-diamidino-2-phenylindole (DAPI) was added to each well and incubated for 5 min after fixation with 4% paraformaldehyde (PFA) in PBS. The cells were washed with PBS, mounted on the slide, and observed by fluorescence microscopy (Nikon, Tokyo, Japan). To analyze the internalization efficiency of CPP, the fluorescence of cell lysates and supernatants was measured using TECAN Safire multi-well reader with excitation and emission wavelengths set to 485 nm and 535 nm, following the protocol published (Wang et al., [2010]; Ma et al., [2015]; Wang et al., [2016]; [2016]; Zhou et al., [2017]; Shao et al., [2016]; Zhang et al., [2019]; Geng et al., [2020]). After the cell incubation with peptide and washing step described above, cells were lysed with 300 µl lysis buffer (0.1 M NaOH) for 10 minutes and centrifuged at 800 rpm for 5 minutes. Fluorescence in the 50 µl supernatant transferred to a 96-well plate was monitored by the plate-reader spectrophotometer (Tecan, Mannedorf, Switzerland). The amount of FITC-labeled peptides internalized were normalized by protein concentration, and the experiments indicated were repeated at least three times.

MCF7 = assay: as above; assay type: cell-based, human; details: FITC-labeled peptide 5 μM; MCF7 compared with other cell lines
Procedure: (§1) Cells were suspended in regular culture media and seeded on coverslip in a 24-well plate at a concentration of 1.6 × 10^4 cells/well. Rinsing with PBS twice after 24 h of incubation for cell attachment, FITC-labeled peptides at indicated concentrations were added with 0.5 ml serum-free media/well and incubated for 1 hour at 37 °C. After incubation, the cells were washed with PBS at least three times. 4′,6-diamidino-2-phenylindole (DAPI) was added to each well and incubated for 5 min after fixation with 4% paraformaldehyde (PFA) in PBS. The cells were washed with PBS, mounted on the slide, and observed by fluorescence microscopy (Nikon, Tokyo, Japan).
(§2) To analyze the internalization efficiency of CPP, the fluorescence of cell lysates and supernatants was measured using TECAN Safire multi-well reader with excitation and emission wavelengths set to 485 nm and 535 nm, following the protocol published (Wang et al., [2010]; Ma et al., [2015]; Wang et al., [2016]; [2016]; Zhou et al., [2017]; Shao et al., [2016]; Zhang et al., [2019]; Geng et al., [2020]). After the cell incubation with peptide and washing step described above, cells were lysed with 300 µl lysis buffer (0.1 M NaOH) for 10 minutes and centrifuged at 800 rpm for 5 minutes. Fluorescence in the 50 µl supernatant transferred to a 96-well plate was monitored by the plate-reader spectrophotometer (Tecan, Mannedorf, Switzerland). […]

BV2 cells = assay: as above; assay type: cell-based, mouse; details: FITC-labeled peptide 5 μM
Procedure: as §1, §2

Mouse erythrocytes = assay: Hemolysis assay; assay type: cell-based; details: mouse erythrocytes in PBS, 37 °C, 2 h, absorbance 450 nm; 0.1% Triton X-100 positive control
Procedure: Mouse erythrocytes free of plasma components were separated by centrifugation at 1000 rpm for 5 minutes and washed three times with PBS. The washed mouse erythrocytes were resuspended in PBS and treated with indicated concentrations of peptides at 37 °C for 2 h. Hemolysis was examined by measuring the absorbance of supernatant at the wavelength of 450 nm, and 0.1% Triton X-100 was used as a positive control.

BV2 = assay: Peptide-mediated transfection of pdsRed plasmid, RFP expression; assay type: cell-based, mouse; details: BV2, 80:1 group
Procedure: HSC-T6, BV2 and MCF7 cells (4 × 10^4 cells/well) were seeded onto 24-well plates 24 h before the experiment. Cells were incubated with CPP-P1/pDNA complexes at indicated N/P ratios for 4 hrs in serum-free media, and then were incubated for 24 h or 48 h after adding media with 10% serum. Live cell imaging under fluorescence microscope was carried out to estimate peptide-based transfection efficiency. Cells transfected with TurboFectin (OriGene, Beijing, China) were used as positive transfection reagent.

HSC-T6 cells [2] = test system: HSC-T6 cells
Procedure: Cytotoxicity was measured using MTT assay. Grown cells were inoculated for 24 h at a density of 10000 cells/well in 96-well plates. After washing with PBS, the indicated concentrations of peptides were added, following by further incubation for 24 h or 48 h. After at least two-times washing, 5 mg/ml MTT dissolved in PBS with serum-free media was added into plates for another 4 h incubation. Dimethyl sulfoxide (DMSO) was added into plates and incubated at 37 °C for 15–30 minutes to dissolve the formazan crystals. The absorbance of aliquot from each well was measured at 490 nm using a Multiskan Spectrum (Thermo Fisher Scientific, Waltham, MA, USA) microplate reader. Experiments were repeated three times.

## KKKKKRFSFKKSFKLSGFSFKKNKK [P1]
HSC-T6 cells [1]; 100 μM CQ, fluorescent quantification, Figure S6, cell line not stated at place
  penetration efficiency with chloroquine (CQ): no obvious effect
HSC-T6 cells [1]; FITC-labeled peptide 5 μM, after 1 hour treatment, longer incubation times, images and fluorescence quantification
  fluorescence of peptide versus incubation time: significantly decreased as incubation time increased
HSC-T6 cells [1]; FITC-labeled peptide, 1 hour, 37 °C, serum-free media, fluorescence normalized with protein concentration
  penetration property versus peptide concentration: concentration dependent
HSC-T6 cells [1]; peptide 5 μM with 0.3 M and 0.6 M sucrose, cell line not stated at place
  penetration efficiency with sucrose: inhibited
HSC-T6 cells [1]; peptide 5 μM with 5% DMSO (2.5% and 5% tested), cell line not stated at place
  penetration efficiency with penetration enhancer DMSO: enhanced
HSC-T6 cells [1]; peptide 5 μM, 25 °C and 4 °C compared to 37 °C
  penetration efficiency at low temperature: significantly inhibited
HSC-T6 cells [1]; peptide 5 μM, same inhibitor list, inhibitor giving this value not specified
  uptake inhibited by endocytosis inhibitors: about 20%
HSC-T6 cells [1]; peptides 5 μM, FITC-labeled, versus MT23 and TAT, cell line not stated at place
  penetration efficiency compared with other published CPPs: higher penetration efficiency than MT23 and TAT
MCF7
  penetration efficiency in different cell lines: higher penetration efficiency in MCF7
BV2 cells
  penetration into hard-to-translocate cells: could enter into hard-to-translocate BV2 cells in significant amount
Mouse erythrocytes
  hemolysis of red blood cells: minimally perturbed
BV2
  RFP expression at N/P 80:1: could not find RFP positive cells
HSC-T6 cells [2]
  cytotoxicity, MTT assay: did not find significant cytotoxicity
